Values of other authors in patent US7713553B2, “Method of manufacture of a liquid pesticide containing copper and a liquid pesticide containing copper” (Genics Inc., priority 2001, dated 2010).

For `[Cu+2].[OH-].[OH-]` [copper hydroxide], which solubility in water is on record?
The solubility in water was “almost insoluble”.
